Data reported in patent US10308639B2, “Phosphatidylinositol 3-kinase inhibitors” (Gilead Sciences, Inc., priority 2014, dated 2019).
Where two headings read alike, the source gives them in different places.

Tests used:
Type in all cases: biochemical
PI3Kβ = target: T1, PI3Kβ (Homo sapiens, UniProt P42338); experiment: TR-FRET enzymatic activity assay, PI3Kβ
T1 construct: made in house

PI3Kδ = target: T2, PI3Kδ (Homo sapiens, UniProt O00329); experiment: TR-FRET enzymatic activity assay, PI3Kδ
T2 construct: made in house

PI3Kγ = target: T3, PI3Kγ (Homo sapiens, UniProt P48736); experiment: TR-FRET enzymatic activity assay, PI3Kγ; conditions: read-out: PI3Kγ IC50
T3 construct: made in house
Procedure: The compounds of formula (I) were characterized for their enzymatic activity against the PI3K isoforms. The activities were measured using a time-resolved fluorescence resonance energy transfer (TR-FRET) assay.

[1] = Table 2, TR-FRET, 2x Km ATP, 30 minutes at 25° C.

T2 sequence (O00329 whole entry): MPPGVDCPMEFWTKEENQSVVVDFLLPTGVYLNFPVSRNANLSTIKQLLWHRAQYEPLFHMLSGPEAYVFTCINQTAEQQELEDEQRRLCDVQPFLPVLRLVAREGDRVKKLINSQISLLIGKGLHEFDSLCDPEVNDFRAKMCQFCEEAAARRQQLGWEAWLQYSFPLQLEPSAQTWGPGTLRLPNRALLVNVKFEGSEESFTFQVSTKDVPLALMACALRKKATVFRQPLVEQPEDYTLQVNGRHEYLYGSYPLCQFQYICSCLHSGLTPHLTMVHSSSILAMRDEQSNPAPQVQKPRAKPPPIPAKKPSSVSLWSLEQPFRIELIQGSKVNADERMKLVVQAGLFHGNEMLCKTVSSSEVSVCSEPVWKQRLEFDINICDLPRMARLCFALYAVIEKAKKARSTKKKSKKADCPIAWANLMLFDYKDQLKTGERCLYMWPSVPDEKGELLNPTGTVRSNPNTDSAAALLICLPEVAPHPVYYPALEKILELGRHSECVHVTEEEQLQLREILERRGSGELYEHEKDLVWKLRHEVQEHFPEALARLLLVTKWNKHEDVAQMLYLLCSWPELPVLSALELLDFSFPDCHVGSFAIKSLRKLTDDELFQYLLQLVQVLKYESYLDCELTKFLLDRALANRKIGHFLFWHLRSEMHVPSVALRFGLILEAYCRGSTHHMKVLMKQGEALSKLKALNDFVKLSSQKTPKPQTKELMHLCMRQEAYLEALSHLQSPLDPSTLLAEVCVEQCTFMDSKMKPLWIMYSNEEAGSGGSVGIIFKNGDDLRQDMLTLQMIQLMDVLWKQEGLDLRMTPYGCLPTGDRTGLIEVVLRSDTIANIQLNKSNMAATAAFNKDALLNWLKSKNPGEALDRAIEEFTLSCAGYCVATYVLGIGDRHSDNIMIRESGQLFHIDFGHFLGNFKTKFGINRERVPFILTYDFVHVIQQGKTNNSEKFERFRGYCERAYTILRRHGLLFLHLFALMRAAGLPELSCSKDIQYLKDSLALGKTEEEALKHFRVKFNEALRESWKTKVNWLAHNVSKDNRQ
T2 sequence (P27986 whole entry partner): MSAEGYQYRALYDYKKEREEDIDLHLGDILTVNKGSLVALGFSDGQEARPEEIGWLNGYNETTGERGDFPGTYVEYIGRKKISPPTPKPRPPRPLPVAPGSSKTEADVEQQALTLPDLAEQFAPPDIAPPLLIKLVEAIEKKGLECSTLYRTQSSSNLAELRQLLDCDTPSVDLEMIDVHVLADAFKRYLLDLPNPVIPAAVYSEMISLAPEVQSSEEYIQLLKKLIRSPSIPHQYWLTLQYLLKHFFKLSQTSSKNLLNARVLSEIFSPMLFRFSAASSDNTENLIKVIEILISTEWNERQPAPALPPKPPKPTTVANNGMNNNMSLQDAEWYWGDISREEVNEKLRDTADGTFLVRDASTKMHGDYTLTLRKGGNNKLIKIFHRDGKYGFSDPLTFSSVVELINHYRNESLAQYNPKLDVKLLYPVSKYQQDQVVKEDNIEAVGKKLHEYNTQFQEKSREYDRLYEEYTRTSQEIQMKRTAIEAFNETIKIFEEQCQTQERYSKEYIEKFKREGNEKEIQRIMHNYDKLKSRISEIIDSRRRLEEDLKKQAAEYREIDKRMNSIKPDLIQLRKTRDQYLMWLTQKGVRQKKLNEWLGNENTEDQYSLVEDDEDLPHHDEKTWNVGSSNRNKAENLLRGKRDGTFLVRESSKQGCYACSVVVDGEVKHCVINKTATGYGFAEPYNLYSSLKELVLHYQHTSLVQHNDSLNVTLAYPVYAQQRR
T3 sequence (P48736 whole entry): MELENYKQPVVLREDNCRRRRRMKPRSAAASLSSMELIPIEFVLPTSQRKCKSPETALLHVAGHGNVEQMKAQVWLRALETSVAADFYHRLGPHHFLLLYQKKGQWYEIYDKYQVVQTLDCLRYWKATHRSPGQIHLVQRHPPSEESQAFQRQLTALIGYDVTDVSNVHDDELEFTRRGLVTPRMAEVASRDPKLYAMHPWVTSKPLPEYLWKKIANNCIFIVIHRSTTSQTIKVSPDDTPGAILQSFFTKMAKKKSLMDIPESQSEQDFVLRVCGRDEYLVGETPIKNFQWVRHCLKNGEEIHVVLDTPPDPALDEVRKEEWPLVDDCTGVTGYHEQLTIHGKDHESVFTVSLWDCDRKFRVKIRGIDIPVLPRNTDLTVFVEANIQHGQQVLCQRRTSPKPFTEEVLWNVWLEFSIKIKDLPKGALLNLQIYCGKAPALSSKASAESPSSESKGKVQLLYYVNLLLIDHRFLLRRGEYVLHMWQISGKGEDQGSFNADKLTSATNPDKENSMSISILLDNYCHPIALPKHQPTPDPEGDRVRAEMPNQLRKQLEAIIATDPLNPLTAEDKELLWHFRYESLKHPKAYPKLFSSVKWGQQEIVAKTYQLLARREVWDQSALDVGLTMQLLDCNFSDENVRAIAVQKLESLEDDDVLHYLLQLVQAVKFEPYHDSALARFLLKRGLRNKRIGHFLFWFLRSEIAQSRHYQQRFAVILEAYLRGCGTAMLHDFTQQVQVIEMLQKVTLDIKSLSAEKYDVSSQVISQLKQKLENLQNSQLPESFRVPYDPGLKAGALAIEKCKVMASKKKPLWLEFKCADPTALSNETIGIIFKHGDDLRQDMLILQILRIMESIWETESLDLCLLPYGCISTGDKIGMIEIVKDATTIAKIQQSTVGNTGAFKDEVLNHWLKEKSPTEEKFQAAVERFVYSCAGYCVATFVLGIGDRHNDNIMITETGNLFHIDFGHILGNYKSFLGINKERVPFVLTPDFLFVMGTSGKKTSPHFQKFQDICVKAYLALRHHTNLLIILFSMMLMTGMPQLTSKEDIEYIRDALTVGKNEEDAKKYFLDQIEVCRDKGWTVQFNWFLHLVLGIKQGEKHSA
T1 sequence (P42338 whole entry): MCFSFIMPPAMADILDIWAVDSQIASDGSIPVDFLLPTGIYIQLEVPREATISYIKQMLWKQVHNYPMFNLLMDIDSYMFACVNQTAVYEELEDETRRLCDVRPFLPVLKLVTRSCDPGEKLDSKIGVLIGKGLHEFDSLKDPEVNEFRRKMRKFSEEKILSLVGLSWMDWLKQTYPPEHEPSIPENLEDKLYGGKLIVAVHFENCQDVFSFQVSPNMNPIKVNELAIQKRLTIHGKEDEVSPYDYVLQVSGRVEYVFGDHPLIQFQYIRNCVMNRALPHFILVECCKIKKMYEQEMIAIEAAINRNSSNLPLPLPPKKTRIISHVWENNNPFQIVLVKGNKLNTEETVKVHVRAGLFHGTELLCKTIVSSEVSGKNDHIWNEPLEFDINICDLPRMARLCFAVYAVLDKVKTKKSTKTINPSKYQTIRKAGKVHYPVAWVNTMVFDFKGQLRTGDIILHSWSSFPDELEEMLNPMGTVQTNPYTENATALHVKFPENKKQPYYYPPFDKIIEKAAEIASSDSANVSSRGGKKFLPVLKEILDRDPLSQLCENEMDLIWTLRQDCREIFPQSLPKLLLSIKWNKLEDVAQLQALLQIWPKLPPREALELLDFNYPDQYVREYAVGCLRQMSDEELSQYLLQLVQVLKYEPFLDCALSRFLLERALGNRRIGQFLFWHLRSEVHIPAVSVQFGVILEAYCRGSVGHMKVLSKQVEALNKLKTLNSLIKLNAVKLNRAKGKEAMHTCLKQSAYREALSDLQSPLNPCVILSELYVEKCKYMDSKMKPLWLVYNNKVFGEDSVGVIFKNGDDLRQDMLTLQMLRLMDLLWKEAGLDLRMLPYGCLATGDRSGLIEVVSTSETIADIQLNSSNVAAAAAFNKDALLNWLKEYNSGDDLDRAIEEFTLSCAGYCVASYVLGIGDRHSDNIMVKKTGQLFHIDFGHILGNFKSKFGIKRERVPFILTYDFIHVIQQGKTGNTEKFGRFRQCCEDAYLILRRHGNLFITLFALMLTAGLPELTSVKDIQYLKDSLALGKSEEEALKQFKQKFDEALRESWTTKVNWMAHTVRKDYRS
T1 sequence (P27986 whole entry partner): as the sequence (P27986 whole entry partner) above

| Compound | IC50 (PI3Kβ; Table 2a, same assay) [nM] | IC50 (PI3Kδ; Table 2a, same assay) [nM] | IC50 (PI3Kγ; Table 2a, same assay) [nM] | IC50 (PI3Kβ; [1]) [nM] | IC50 (PI3Kδ; [1]) [nM] | other results |
| --- | --- | --- | --- | --- | --- | --- |
| C[C@@H](Nc1nc(N)nc(N)c1Cl)c1nc2cccc(C(F)F)c2c(=O)n1-c1cc[nH]n1 [Compound 181, (R)-2-(1-((2,6-diamino-5-chloropyrimidin-4-yl)amino)ethyl)-5-(difluoromethyl)-3-(1H-pyrazol-3-yl)quinazolin-4(3H)-one] | 65 | 77 | > 10000 | – | – | – |
| CCC[C@H](Nc1nc(N)nc(N)c1Cl)c1nc2cccc(Cl)c2c(=O)n1-c1cc[nH]n1 [Compound 124, (S)-5-chloro-2-(1-((2,6-diamino-5-chloropyrimidin-4-yl)amino)butyl)-3-(1H-pyrazol-3-yl)quinazolin-4(3h)-one] | – | – | – | 14 | 12 | IC50 (PI3Kγ; [1]): 6700 nM |
| Nc1nc(N)c(Cl)c(N[C@H](c2nc3ccc(F)c(Cl)c3c(=O)n2-c2cc[nH]n2)C2CC2)n1 [Compound 261, (S)-5-chloro-2-(cyclopropyl((2,6-diamino-5-chloropyrimidin-4-yl)amino)methyl)-6-fluoro-3-(1H-pyrazol-3-yl)quinazolin-4(3H)-one] | 49 | 12 | 5200 | – | – | – |
| N#Cc1c(N)nc(N)nc1N[C@H](c1nc2ccc(F)cc2c(=O)n1-c1cc[nH]n1)C1CC1 [Compound 113, (S)-2,4-diamino-6-((cyclopropyl(6-fluoro-4-oxo-3-(1H-pyrazol-3-yl)-3,4-dihydroquinazolin-2-yl)methyl)amino)pyrimidine-5-carbonitrile] | – | – | – | 2 | 1 | IC50 (PI3Kγ; [1]): 980 nM |
| C[C@@H](Nc1nc(N)nc(N)c1C#N)c1nc2c(Cl)cc(F)cc2c(=O)n1-c1cc[nH]n1 [Compound 175, (R)-2,4-diamino-6-((1-(8-chloro-6-fluoro-4-oxo-3-(1H-pyrazol-3-yl)-3,4-dihydroquinazolin-2-yl)ethyl)amino)pyrimidine-5-carbonitrile] | 19 | 13 | > 10000 | – | – | – |
| CC[C@H](Nc1ncnc2scnc12)c1nc2cccc(S(C)(=O)=O)c2c(=O)n1-c1cc[nH]n1 [Compound 87, (S)-5-(methylsulfonyl)-3-(1H-pyrazol-3-yl)-2-(1-(thiazolo[5,4-d]pyrimidin-7-ylamino)propyl)quinazolin-4(3H)-one] | – | – | – | 70 | 0.4 | IC50 (PI3Kγ; [1]): 8200 nM |
| C[C@H](NC(=O)c1nc(Cl)c(N)nc1N)c1nc2c(F)ccc(Cl)c2c(=O)n1-c1cc[nH]n1 [Compound 277, (S)-3,5-diamino-6-chloro-N-(1-(5-chloro-8-fluoro-4-oxo-3-(1H-pyrazol-3-yl)-3,4-dihydroquinazolin-2-yl)ethyl)pyrazine-2-carboxamide] | 43 | 50 | 390 | – | – | – |
| Cc1ccc(Cl)c2nc([C@H](C)Nc3nc(N)nc(N)c3Cl)n(-c3cc[nH]n3)c(=O)c12 [Compound 223, (S)-8-chloro-2-(1-((2,6-diamino-5-chloropyrimidin-4-yl)amino)ethyl)-5-methyl-3-(1H-pyrazol-3-yl)quinazolin-4(3H)-one] | 3 | 3 | 9400 | – | – | – |
| CC[C@H](Nc1ncnc2scnc12)c1nc2c(Cl)ccc(Cl)c2c(=O)n1-c1cc[nH]n1 [Compound 46, (S)-5,8-dichloro-3-(1H-pyrazol-3-yl)-2-(1-(thiazolo[5,4-d]pyrimidin-7-ylamino)propyl)quinazolin-4(3H)-one] | – | – | – | 18 | 4 | IC50 (PI3Kγ): > 10000 nM |
| Cc1ccc(Cl)c2nc([C@H](C)Nc3nc(N)nc(C(F)F)c3C#N)n(-c3cc[nH]n3)c(=O)c12 [Compound 224, (S)-2-amino-4-((1-(8-chloro-5-methyl-4-oxo-3-(1H-pyrazol-3-yl)-3,4-dihydroquinazolin-2-yl)ethyl)amino)-6-(difluoromethyl)pyrimidine-5-carbonitrile] | 5 | 2 | 2100 | – | – | – |
| C[C@H](Nc1nc(N)nc(N)c1Cl)c1nc2c(Cl)cc(F)cc2c(=O)n1-c1cn[nH]c1 [Compound 265, (S)-8-chloro-2-(1-((2,6-diamino-5-chloropyrimidin-4-yl)amino)ethyl)-6-fluoro-3-(1H-pyrazol-4-yl)quinazolin-4(3H)-one] | 180 | 31 | 3100 | – | – | – |
| Nc1nc(N)c(Cl)c(N[C@H](c2nc3cccc(F)c3c(=O)n2-c2cc[nH]n2)C2CC2)n1 [Compound 10, (S)-2-(cyclopropyl((2,6-diamino-5-chloropyrimidin-4-yl)amino)methyl)-5-fluoro-3-(1H-pyrazol-3-yl)quinazolin-4(3H)-one] | – | – | – | 71 | 28 | IC50 (PI3Kγ): > 10000 nM |
| C[C@H](Nc1nc(N)nc(N)c1Cl)c1nc2ccc(Cl)c(C(F)F)c2c(=O)n1-c1cc[nH]n1 [Compound 229, (S)-6-chloro-2-(1-((2,6-diamino-5-chloropyrimidin-4-yl)amino)ethyl)-5-(difluoromethyl)-3-(1H-pyrazol-3-yl)quinazolin-4(3H)-one] | 85 | 49 | 5000 | – | – | – |
| CC[C@H](Nc1ncnc2cccnc12)c1nc2c(Cl)ccc(Cl)c2c(=O)n1-c1cc[nH]n1 [Compound 44, (S)-5,8-dichloro-3-(1H-pyrazol-3-yl)-2-(1-(pyrido[3,2-d]pyrimidin-4-ylamino)propyl)quinazolin-4(3H)-one] | – | – | – | 84 | 10 | IC50 (PI3Kγ): > 10000 nM |
| Nc1nc(N)c(Cl)c(N[C@H](c2nc3cccc(Cl)c3c(=O)n2-c2cc[nH]n2)C2CCC2)n1 [Compound 127, (S)-5-chloro-2-(cyclobutyl((2,6-diamino-5-chloropyrimidin-4-yl)amino)methyl)-3-(1H-pyrazol-3-yl)quinazolin-4(3H)-one] | 49 | 21 | – | – | – | – |
| CC(C)Cc1cc(-n2c([C@H](C)Nc3ncnc(N)c3C#N)nc3cccc(Cl)c3c2=O)n[nH]1 [Compound 4, (S)-4-amino-6-((1-(5-chloro-3-(5-isobutyl-1H-pyrazol-3-yl)-4-oxo-3,4-dihydroquinazolin-2-yl)ethyl)amino)pyrimidine-5-carbonitrile] | – | – | – | 84 | 7 | – |
| C[C@H](Nc1nc(N)nc(N)c1C#N)c1nc2cccc(Cl)c2c(=O)n1-c1ccccc1 [Compound X, (S)-2,4-diamino-6-((1-(5-chloro-4-oxo-3-phenyl-3,4-dihydroquinazolin-2-yl)ethyl)amino)pyrimidine-5-carbonitrile, reference compound] | – | – | – | – | – | PI3Kγ/PI3Kβ ratio (PI3Kβ; ratio of IC50 values): 0.6 |
| C[C@H](Nc1nc(N)nc(N)c1C#N)c1nc2cccc(Cl)c2c(=O)n1-c1ccccc1 [(S)-2,4-diamino-6-((1-(5-chloro-4-oxo-3-phenyl-3,4-dihydroquinazolin-2-yl)ethyl)amino)pyrimidine-5-carbonitrile] | – | – | – | – | – | PI3Kγ/PI3Kβ IC50 ratio (PI3Kβ; ratio of IC50 values, text b271): less than 1 fold |
| CC(C)[C@H](Nc1nc(N)nc(N)c1Cl)c1nc2cccc(Cl)c2c(=O)n1-c1cc[nH]n1 [Compound 146, (S)-5-chloro-2-(1-((2,6-diamino-5-chloropyrimidin-4-yl)amino)-2-methylpropyl)-3-(1H-pyrazol-3-yl)quinazolin-4(3H)-one] | 94 | 25 | – | – | – | – |
| Cc1c[nH]nc1-n1c([C@@H](NC2=NC(N)=NC3=NN=C(Br)C32)C2CC2)nc2cccc(Cl)c2c1=O (stereo partly shown) [Compound 242, 2-((1 S)-((6-amino-3-bromo-3aH-pyrazolo[3,4-d]pyrimidin-4-yl)amino)(cyclopropyl)methyl)-5-chloro-3-(4-methyl-1H-pyrazol-3-yl)quinazolin-4(3H)-one] | 1600 | 220 | – | – | – | – |
